Data as given in US8383581B2, “Short-chain peptides as parathyroid hormone (PTH) receptor agonist” (Cadila Healthcare Limited, priority 2009, dated 2013).
Where a SMILES comes first, the peptide text is derived from it. Where no end group is shown, it is not given here. [ ]: non-standard residue; d: D form. ξ: configuration not given here. Arg(NO2) = N=C(NCCC[C@H](N)C(=O)O)N[N+](=O)[O-]; αMePhe(2,6-F2) = C[C@](N)(Cc1c(F)cccc1F)C(=O)O; αMePhe(2-F) = C[C@](N)(Cc1ccccc1F)C(=O)O; hArg = N=C(N)NCCCC[C@H](N)C(=O)O; hCit = NC(=O)NCCCC[C@H](N)C(=O)O; Cit = NC(=O)NCCC[C@H](N)C(=O)O; ξαMeF = CC(N)(Cc1ccccc1)C(=O)O; Nle = CCCC[C@H](N)C(=O)O; Ac5c = NC1(C(=O)O)CCCC1; Ac3c = NC1(C(=O)O)CC1; Aib = CC(C)(N)C(=O)O

T1: rat PTH-1R (rat PTHR endogenously expressed on UMR-106 rat osteosarcoma cells) (rat, UniProt P25961 27-591)
T1 sequence (looked up): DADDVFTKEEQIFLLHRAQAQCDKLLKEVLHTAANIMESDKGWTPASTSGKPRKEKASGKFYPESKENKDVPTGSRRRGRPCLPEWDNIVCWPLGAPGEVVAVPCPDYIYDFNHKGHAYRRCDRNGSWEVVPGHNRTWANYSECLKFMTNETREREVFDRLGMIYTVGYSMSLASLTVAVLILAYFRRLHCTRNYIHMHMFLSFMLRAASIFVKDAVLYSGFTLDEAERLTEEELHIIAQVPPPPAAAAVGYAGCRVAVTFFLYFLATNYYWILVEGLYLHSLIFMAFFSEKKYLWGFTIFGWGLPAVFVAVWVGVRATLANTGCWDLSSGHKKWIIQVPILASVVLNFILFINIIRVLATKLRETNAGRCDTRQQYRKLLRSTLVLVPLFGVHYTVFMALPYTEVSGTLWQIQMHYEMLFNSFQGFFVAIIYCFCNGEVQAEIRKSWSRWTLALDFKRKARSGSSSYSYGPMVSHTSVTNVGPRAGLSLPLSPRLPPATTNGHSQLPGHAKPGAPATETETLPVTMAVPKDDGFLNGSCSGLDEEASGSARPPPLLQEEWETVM


Columns and labels:
[1] = Stability of peptides in simulated intestinal fluid (pH 7.5); assay type: in vitro ADME
Method: (§1) b) Stability of Peptides in Human Plasma, Simulated Gastric Fluid, Intestinal Fluid and Liver Microsomes (Ex-Vivo): Different short-chain peptides (final concentration 2 μM) were incubated with either pooled human plasma (7.5 μL) or simulated gastric fluid (pH 1.5; composition HCl, NaCl and Pepsin) or simulated intestinal fluid (pH 7.5) or human liver microsomes, for 0, 2, 4, 6, 12 and 24 h (37° C.; 50 mM triethanolamine-HCl buffer; pH 7.8). Concentrations of human plasma/simulated gastric fluid/simulated intestinal fluid/human liver microsomes were selected in preliminary experiments to provide degradation of approximately 50% of PTH(1-34) within 1 h, therefore allowing time-dependent degradation to be viewed over 24 h. Reactions were terminated by the addition of TFA/H2O ([…], 10% (v/v)). The reaction products were then applied to a Vydac C18 analytical column (4.6×250-mm) and the major degradation fragment separated from intact short-chain peptides. The column was equilibrated with TFA/H20, at a flow rate of 1 mL/min. Using 0.1% (v/v) TFA in 70% acetonitrile/H2O, the concentration of acetonitrile in the eluting solvent was raised from 0% to 28% over 10 min and from 28% to 42% over 30 min. The absorbance was monitored at 206 nm using UV detector and peaks were collected manually prior to ESI-MS analysis. Area under the curve was measured for test peptides and their metabolites and percentage degradation were calculated at each time point over a period of 24 h. Stability study results of selected peptides, in human plasma, simulated gastric fluid, intestinal fluid and liver microsomes (in vitro) are listed in Table 4.

[2] = Stability of peptides in simulated gastric fluid (pH 1.5; HCl, NaCl and Pepsin); assay type: in vitro ADME; details: for half-life: simulated gi fluid
Method: as §1

[3] = Stability of peptides in human plasma; assay type: in vitro ADME
Method: as §1

[4] = Stability of peptides in human liver microsomes; assay type: in vitro ADME
Method: as §1

[5] = target: T1, rat PTH-1R (rat PTHR endogenously …); assay: cell-based or functional assay
[6] = simulated intestinal fluid, 2 μM, pH 7.5
[7] = simulated gastric fluid, 2 μM, pH 1.5
[8] = human, microsomes, 2 μM, pH 7.8

% degradation of peptides in 24 h when incubated with simulated intestinal fluid [1, 6] [%]	% degradation of peptides in 24 h when incubated with simulated gastric fluid [2, 7] [%]	half-life ([2]; pH 1.5) [min]	metabolised at 24 h, 2 μM ([3]; human, plasma, pH 7.8) [%]	% degradation of peptides in 24 h when incubated with liver microsomes [4, 8] [%]	cAMP released with respect to control, 1 nM peptide, UMR-106 cells [5]	cAMP released with respect to control, 10 nM peptide, UMR-106 cells [5]	cAMP released with respect to control, 100 nM peptide, UMR-106 cells [5]	Molecule	also measured
100	100	30	78	100	–	–	–	CCCCC(C)(NC(=O)[C@H](CC(C)C)NC(=O)[C@H](CCC(N)=O)NC(=O)[C@@H](NC(=O)[C@H](CCC(=O)O)NC(=O)C(C)(C)NC(=O)[C@@H](NC(=O)C1(NC(=O)[C@@H](N)C(C)C)CCCC1)C(C)C)[C@@H](C)CC)C(=O)N[C@@H](Cc1c[nH]cn1)C(=O)N[C@@H](CCC(N)=O)C(=O)N[C@@H](CCCCNC(=N)N)C(=O)N[C@@H](C)C(=O)N[C@@H](CCCCNC(=N)N)C(=O)NC(Cc1ccc(-c2ccc(OC)cc2CC)cc1)C(=O)NC(C)(CCCc1ccccc1)C(N)=O (single isomer, unassigned) [Seq. ID. 925]	half-life ([1]; simulated gi fluid, pH 7.5): 30 min; half-life (t1/2) in human plasma ([3]; human, plasma): (9) h; half-life ([4]; human, microsomes): 30 min
00	00	> 1440	0	35	–	–	–	CC[C@H](C)[C@H](NC(=O)[C@H](CCC(=O)O)NC(=O)C(C)(C)NC(=O)[C@@H](NC(=O)C1(NC(=O)[C@@H](N)C(C)C)CC1)C(C)C)C(=O)N[C@@H](CCC(N)=O)C(=O)N[C@@H](CC(C)C)C(=O)NC(C)(CCSC)C(=O)N[C@@H](Cc1c[nH]cn1)C(=O)N[C@@H](CCC(N)=O)C(=O)N[C@@H](CCCCNC(=N)N)C(=O)N[C@@H](C)C(=O)N[C@@H](CCCCNC(=N)N)C(=O)NC(C)(Cc1c[nH]c2ccccc12)C(=O)NC(C)(CCCc1ccccc1)C(N)=O (single isomer, unassigned) [Seq. ID. 950]	half-life ([1]; simulated gi fluid, pH 7.5): > 1440 min; half-life ([3]; human, plasma): > 1440 min; half-life (t1/2) in liver microsomes ([4]; human, microsomes): (5) h
–	–	–	–	–	–	–	–	CC[C@H](C)[C@H](NC(=O)[C@H](CCC(=O)O)NC(=O)[C@H](CO)NC(=O)[C@@H](NC(=O)[C@@H](N)CO)C(C)C)C(=O)N[C@@H](CCC(N)=O)C(=O)N[C@@H](CC(C)C)C(=O)N[C@@H](CCSC)C(=O)N[C@@H](Cc1cnc[nH]1)C(=O)N[C@@H](CC(N)=O)C(=O)N[C@@H](CC(C)C)C(=O)NCC(=O)N[C@@H](CCCCN)C(=O)N[C@@H](Cc1cnc[nH]1)C(=O)N[C@@H](CC(C)C)C(=O)N[C@@H](CC(N)=O)C(=O)N[C@@H](CO)C(=O)N[C@@H](CCSC)C(=O)N[C@@H](CCC(=O)O)C(=O)N[C@@H](CCCN=C(N)N)C(=O)N[C@H](C(=O)N[C@@H](CCC(=O)O)C(=O)N[C@@H](Cc1c[nH]c2ccccc12)C(=O)N[C@@H](CC(C)C)C(=O)N[C@@H](CCCN=C(N)N)C(=O)N[C@@H](CCCCN)C(=O)N[C@@H](CCCCN)C(=O)N[C@@H](CC(C)C)C(=O)N[C@@H](CCC(N)=O)C(=O)N[C@@H](CC(=O)O)C(=O)N[C@H](C(=O)N[C@@H](Cc1cnc[nH]1)C(=O)N[C@@H](CC(N)=O)C(=O)N[C@@H](Cc1ccccc1)C(=O)O)C(C)C)C(C)C [PTH(1-34), reference compound]	% degradation of peptides in 24 h when incubated with simulated intestinal fluid ([1]; simulated intestinal fluid pH 7.5, 37° C., peptide 2 μM): 100%; metabolised at 1 h ([1]; pH 7.5, simulated intestinal fluid, within 1 h, 37° C., preliminary experiments, read-out: degradation): ~50%; half-life ([1]; simulated gi fluid, simulated intestinal fluid pH 7.5, 37° C., peptide 2 μM, read-out: half-life (t1/2) in simulated intestinal fluid): 12 min; % degradation of peptides in 24 h when incubated with simulated gastric fluid ([2]; simulated gastric fluid pH 1.5, 37° C., peptide 2 μM): 100%; metabolised at 1 h ([2]; pH 1.5, simulated gastric fluid, within 1 h, 37° C., preliminary experiments, read-out: degradation): ~50%; half-life ([2]; simulated gastric fluid pH 1.5, 37° C., peptide 2 μM, read-out: half-life (t1/2) in simulated gastric fluid): 6 min; % degradation of peptides in 24 h when incubated with human plasma ([3]; 24 h, human plasma, 37° C., peptide 2 μM): 97%; half-life ([3]; human plasma, 37° C., peptide 2 μM, read-out: half-life (t1/2) in human plasma): 30 min; metabolised at 1 h ([3]; pH 7.8, human plasma, within 1 h, 37° C., preliminary experiments, read-out: degradation): ~50%; % degradation of peptides in 24 h when incubated with liver microsomes ([4]; human liver microsomes, 37° C., peptide 2 μM): 100%; half-life ([4]; human liver microsomes, 37° C., peptide 2 μM, read-out: half-life (t1/2) in liver microsomes): 6 min; metabolised at 1 h ([4]; pH 7.8, human liver microsomes, within 1 h, 37° C., preliminary experiments, read-out: degradation): ~50%
100	100	30	70	100	–	–	–	CCCC[C@H](NC(=O)[C@H](CC(C)C)NC(=O)[C@H](CCC(N)=O)NC(=O)[C@@H](NC(=O)[C@H](CCC(=O)O)NC(=O)C(C)(C)NC(=O)[C@@H](NC(=O)C(C)(C)N)C(C)C)[C@@H](C)CC)C(=O)N[C@@H](Cc1c[nH]cn1)C(=O)N[C@@H](CCC(N)=O)C(=O)N[C@@H](CCCCNC(=N)N)C(=O)NC(C)(C)C(=O)N[C@@H](CCCCN)C(=O)NC(C)(Cc1ccccc1)C(N)=O (some centres unmarked) [Seq. ID. 10] (H-[Aib]V[Aib]EIQL[Nle]HQ[hArg][Aib]K[ξαMeF]-NH2)	half-life ([1]; simulated gi fluid, pH 7.5): 30 min; half-life (t1/2) in human plasma ([3]; human, plasma): (9) h; half-life ([4]; human, microsomes): 30 min
43	11	420	69	77	–	–	–	CC[C@H](C)[C@H](NC(=O)[C@H](CCC(=O)O)NC(=O)C(C)(C)NC(=O)[C@@H](NC(=O)C1(N)CC1)C(C)C)C(=O)N[C@@H](CCC(N)=O)C(=O)N[C@@H](CC(C)C)C(=O)N[C@@H](CCSC)C(=O)N[C@@H](Cc1c[nH]cn1)C(=O)N[C@@H](CCC(N)=O)C(=O)N[C@@H](CCCCNC(=N)N)C(=O)NC(C)(C)C(=O)N[C@@H](CCCCN)C(=O)NC(C)(Cc1ccccc1)C(N)=O (some centres unmarked) [Seq. ID. 14] (H-[Ac3c]V[Aib]EIQLMHQ[hArg][Aib]K[ξαMeF]-NH2)	half-life (t1/2) in simulated intestinal fluid ([1]; simulated gi fluid, pH 7.5): (6) h; half-life ([3]; human, plasma): 480 min; half-life ([4]; human, microsomes): 120 min
–	–	–	–	–	29 percent of control	52 percent of control	69 percent of control	[Aib]V[Aib]EIQ[αMePhe(2-F)][Nle]HQ[hCit][Aib][Cit][αMePhe(2,6-F2)] [Seq. ID. 418]	–
–	–	–	–	–	32 percent of control	71 percent of control	99 percent of control	[Ac5c]V[Aib]EIQ[αMePhe(2-F)][Nle]HQ[Cit][Aib][Aib][αMePhe(2,6-F2)] [Seq. ID. 372]	–
–	–	–	–	–	26 percent of control	67 percent of control	81 percent of control	[Ac5c]V[Aib]EIQ[αMePhe(2-F)][Nle]HQ[hCit][Aib][αMePhe(2,6-F2)][αMePhe(2-F)] [Seq. ID. 444]	–
–	–	–	–	–	39 percent of control	101 percent of control	120 percent of control	[Aib]V[Aib]EIQ[αMePhe(2,6-F2)][Nle]HQ[hCit]A[Aib][αMePhe(2-F)] [Seq. ID. 429]	–
–	–	–	–	–	38 percent of control	102 percent of control	117 percent of control	[Aib]V[Aib]EIQ[αMePhe(2,6-F2)][Nle]HQ[Cit]A[Arg(NO2)][αMePhe(2-F)] [Seq. ID. 397]	–
–	–	–	–	–	56 percent of control	101 percent of control	126 percent of control	[Aib]V[Aib]EIQ[αMePhe(2,6-F2)][Nle]HQ[hCit]A[Arg(NO2)][αMePhe(2-F)] [Seq. ID. 461]	–
